Reference: patent USRE38352E1, “Polymerase chain reaction assays for monitoring antiviral therapy and making therapeutic decisions in the treatment of acquired immunodeficiency syndrome” (priority 1992, dated 2003)
Values joined by “and” are separate entries in the source; they are usually repeats but may differ in a detail not shown here. Equal values may be shown once.

System: CD4 cells
Assay: CD4 cell counts in long term AZT recipients related to codon 215 genotype
Type: in vivo, human (HIV-infected patients)
Conditions: for CD4 decline after serum mutation / mean decrease of CD4 cells after serum mutation: 19 patients; for mean CD4 count at the start of therapy: 26 patients who developed codon 215 mutation in serum
Experimental: Cryopreserved PBMC and serum from 40 participants in AIDS Clinical Trial Group (ACTG) protocols 019 (30 patients) and 016 (10 patients) at Stanford University Medical Center AIDS Clinical Trial Unit were used in this study. Patients at enrollment in these studies were AZT naive, had >200 CD4 cells/μl and had few (016) or no symptoms (019) referable to HIV infection. They were subsequently treated with AZT for 2 to 4 years. The most common dosage was 500 mg per day.
CD4 cell counts were obtained approximately every three months on each patient. All counts were performed at Stanford's ACTG-qualified cytofluorometry lab. Samples were stained with monoclonal antibodies to CD3, CD4, and CD8. The absolute CD4 count was calculated by multiplying the percent CD4 by the total lymphocyte count.
All comparisons between the patients with mutant and wild type strains were performed using the student's t-test. The calculations on the IC90s determined by the zidovudine sensitive assay were performed using the logl10 transformed IC90 (i.e., geometric means were used rather than arithmetic means).

[1] = 11 patients wild type in serum over 34 months

**Q.** With `Cc1cn([C@H]2C[C@H](N=[N+]=[N-])[C@@H](CO)O2)c(=O)[nH]c1=O` [AZT, zidovudine] as the compound, how does the CD4 increase [1] read?
**A.** 2%

**Q.** And the “increase of CD4 cells” value [1]?
**A.** 7±92 CD4 cells/μl

**Q.** And the “CD4 decline after serum mutation” value (at 12 months)?
**A.** 40%

**Q.** And the “mean decrease of CD4 cells after serum mutation” value (at 12 months)?
**A.** 170±121 CD4 cells/μl

**Q.** What about the “CD4 decline after serum mutation” value (at six months) of the same compound?
**A.** 25%

**Q.** And the “mean decrease of CD4 cells after serum mutation” value (at six months)?
**A.** 100±116 CD4 cells/μl

**Q.** And the “mean increase in absolute CD4 count, start of therapy to end of study” value (21 patients wild type at codon 215)?
**A.** 11%

**Q.** What about the “Starting absolute CD4” value (21 patients wildtype at codon 215 in PBMC) of the same compound?
**A.** 397 cells/μl and 397 ± 124 cells/μl

**Q.** And the “mean CD4 count at first detection of codon 215 mutation in serum” value (26 patients)?
**A.** 444±206 cells/μl and 444 cells/μl

**Q.** And the “mean CD4 count at the start of therapy” value?
**A.** 398±139 cells/μl and 398 cells/μl

**Q.** And the “mean CD4 count at the start of therapy” value (listed as zidovudine)?
**A.** 398±139 cells/μl

**Q.** And the “starting CD4 count” value (patients who remained wild type in serum)?
**A.** 397±115 cells/μl

**Q.** And the “CD4 % at time of PCR analysis” value (wildtype at codon 215 in PBMC)?
**A.** 25% and 25 ± 9%

**Q.** What about the “Starting CD4 %” value (wildtype at codon 215 in PBMC) of the same compound?
**A.** 26 ± 8%

**Q.** What about the “Absolute CD4 at time of PCR analysis” value (wildtype at codon 215 in PBMC, 33 ± 8 months of AZT) of the same compound?
**A.** 424 cell/μl and 424 ± 210 cell/μl

**Q.** And the “Starting CD4 %” value ({})?
**A.** 25 ± 6%

**Q.** And the “decrease in absolute CD4 count, start of therapy to end of study” value ({})?
**A.** 50%
